Results taken from patent US20220296535A1, “Antibacterial Dosage Regime Using Cannabinoids” (Botanix Pharmaceuticals Limited, priority 2019, published 2022).
≈ marks a conversion by molar mass, not a printed value. Like-named read-outs stand apart in the source and are kept apart here.

Legend:
[1] = tested on: A. acidipropionici ATCC 25562; assay: Anaerobic MIC micro-broth dilution; type: cell-based, Acidipropionibacterium acidipropionici; details: A. acidipropionici ATCC 25562, anaerobic chamber, BHI, 48 h
[2] = tested on: Staphylococcus aureus MRSA ATCC 43300 biofilm; assay: Biofilm minimum inhibitory concentration (Biofilm MIC), crystal violet OD590; type: cell-based
Experimental: (§1) The collaborator supplied sample as dry material. A stock solution at 10 mg/mL in neat DMSO (11.2 mg in 1.12 mL of DMSO) was prepared. The highest concentration tested in the assay was 128 μg/mL and 2% DMSO as a final concentration using 1/20 dilution to achieve these concentrations.
Bacteria (Staphylococcus aureus, ATCC 43300; MRSA) was cultured on Tryptic Soy Broth (TSB, BD, Cat. No. 211825) at 37° C. overnight, then it was diluted 1:100 in fresh TSB supplemented with 5% glucose. 100 μL were added across the 96-well of polystyrene (PS) (Corning; Cat. No. 3370) plate, leaving row H as media Control. Plates were incubated at 37° C. for 48 h to generate the biofilm. The plates were prepared in duplicate.
The antibiotic controls and CBD were serially diluted in TSB with 5% glucose two-fold across the wells of polystyrene (PS) 96-well plates (Corning; Cat. No. 3370), plated in duplicate. All plates had flat bottom wells and were covered with low-evaporation lids.
48 h after incubation, bacteria plates were carefully washed three times with 200 μL/well of saline solution (0.9% NaCl, Baxter Healthcare; Cat. No. AHF7124) using manual pipette to remove the planktonic cells but leave the biofilm adhered to the plate wells. Then, 100 μL of diluted controls and CBD were transferred into the washed plates containing the biofilm. Then, these plates were incubated at 37° C. for 24 h.
Next day, plates were washed three times with saline solution, then fixed with 100 μL/well of 99% methanol for 15 minutes. Once the biofilm was fixed, 100 μL/well 0.1% Crystal Violet Stain (Sigma; Cat No. C0775-25G) was added for 20 minutes and used as indicator of biofilm formation, followed by three times washing and dry well. To dissolve the crystal violet, 150 μL/well of methanol was added to allow for biofilm MIC analysis.
The biofilm formation was determined by optical density read at 590 nm (OD590). The percentage of biofilm formation was evaluated comparing the average, standard deviation and percentage of confidence of the media control (Row H) against the rest of the plate.
Analysis was performed using Microsoft Excel.

[3] = Protein binding inferred from loss of activity in 50% human serum; type: in vitro ADME; details: assuming 3% free responsible for activity
Experimental: The compounds were serially diluted in mixture of 50% of human serum (Sigma; Cat. No. H3667-100ML) along with 50% Cation-adjusted Mueller Hinton Broth (CaMHB; BD, Cat. No. 212322) two-fold across the wells of polystyrene (PS) 96-well plates (Corning; Cat. No. 3370), plated in duplicate. All plates had flat bottom wells and were covered with low-evaporation lids.
All control antibiotics gave inhibitory values within the expected ranges.

[4] = tested on: Staphylococcus aureus ATCC 43300; assay: Broth MIC (Example 1); type: cell-based; details: Staphylococcus aureus
Experimental: as §1

P. acnes ATCC 6919 = assay: Anaerobic MIC micro-broth dilution; type: cell-based, Cutibacterium acnes (formerly Propionibacterium acnes); details: P. acnes ATCC 6919, anaerobic chamber, BHI, 48 h
[5] = tested on: Bacillus subtilis ATCC 6633; assay: Expanded panel MIC micro-broth dilution; type: cell-based; details: CaMHB
Experimental: (§2) The collaborator supplied sample as dry material. Angela Kavanagh prepared a stock solution at 10 mg/mL in neat DMSO. The highest concentration tested in the assay was 64 μg/mL for bacteria and 128 μg/mL for fungi. 2% DMSO was the final concentration using 1/20 dilution to achieve these concentrations.
(§3) The compound was serially diluted in Cation-adjusted Mueller Hinton Broth (CaMHB; BD, Cat. No. 212322) two-fold across the wells of polystyrene (PS) 96-well plates (Corning; Cat. No. 3370), plated in duplicate. All plates had flat bottom wells and were covered with low-evaporation lids.
(§4) Bacteria were cultured in CaMHB at 37° C. overnight, then diluted 40-fold and incubated at 37° C. for a further 2-3 h. The resultant mid-log phase cultures were diluted in CaMHB and added to each well of the compound-containing 96-well plates to give a final cell density of 5×10^5 CFU/mL, and a final compound concentration range of 0.03-64 μg/mL. The plates were covered and incubated at 37° C. for 20 h.
(§5) Inhibition of bacterial growth was determined visually, where the MIC was recorded as the lowest compound concentration with no visible growth.

[6] = tested on: Staphylococcus aureus ATCC 29213; assay: Expanded panel MIC micro-broth dilution; type: cell-based; details: CaMHB
Experimental: as §2, §3, §4, §5

[7] = tested on: Staphylococcus epidermidis ATCC 12228; assay: Expanded panel MIC micro-broth dilution; type: cell-based; details: CaMHB
Experimental: as §2, §3, §4, §5

[8] = tested on: Staphylococcus aureus ATCC 33591; assay: Expanded panel MIC micro-broth dilution; type: cell-based; details: CaMHB
Experimental: as §2, §3, §4, §5

Kocuria rosea ATCC 31251 = assay: Expanded panel MIC micro-broth dilution; type: cell-based; details: CaMHB
Experimental: as §2, §3, §4, §5

[9] = tested on: Staphylococcus aureus ATCC 700699, NRS 1; assay: Expanded panel MIC micro-broth dilution; type: cell-based; details: CaMHB, read-out: Cannabidiol MIC (Batch 1)
Experimental: as §2, §3, §4, §5

[10] = tested on: Staphylococcus capitis ATCC 27840; assay: Expanded panel MIC micro-broth dilution; type: cell-based; details: CaMHB
Experimental: as §2, §3, §4, §5

[11] = tested on: Staphylococcus warneri ATCC 27836; assay: Expanded panel MIC micro-broth dilution; type: cell-based; details: CaMHB
Experimental: as §2, §3, §4, §5

[12] = tested on: Bacillus cereus ATCC 11778; assay: Expanded panel MIC micro-broth dilution; type: cell-based; details: CaMHB
Experimental: as §2, §3, §4, §5

C=C(C)C1CCC(C)=CC1c1c(O)cc(CCCCC)cc1O (stereo not drawn) [Cannabidiol, 2-[3-methyl-6-(1-methylethenyl)-2-cyclohexen-1-yl]-5-pentyl-1,3-benzenediol]
MIC [1]: active
MIC ([1]; Acidipropionibacterium acidipropionici, ATCC25562, read-out: MIC): 0.5 µg/mL (≈ 1.59 µM)
biofilm MIC [2]: 1 to 2 µg/mL
biofilm MIC relative to standard vegetative cell MIC [2]: approximately four-fold
inhibition of 48 h biofilm formation ([2]; at 2 and 4 μg/mL): up to 75%
Biofilm MIC (TSB + 5% Gluc) 07/112/18 ([2]; first biological replicate, two technical replicates, ≥70% inhibition OD590): 4 µg/mL
Biofilm MIC (TSB + 5% Gluc) 14/112/18 ([2]; second biological replicate, two technical replicates, ≥70% inhibition OD590): 2 µg/mL
fraction unbound [3]: < 0.03
MIC ([4]; ATCC43300, CAMHB, read-out: Broth MIC): 1 µg/mL (≈ 3.18 µM)
MIC ([4]; ATCC43300, TSB + 5% Glucose, read-out: Broth MIC): 0.5 µg/mL
MIC ([4]; ATCC 43300 / MRSA, same strain of MRSA, read-out: standard vegetative cell MIC): 0.5 to 1 µg/mL (≈ 1.59 to 3.18 µM)
MIC (P. acnes ATCC 6919; listed as Cannabidiol (Batch 2)): 2/1
MIC (P. acnes ATCC 6919; listed as Cannabidiol (CBD)): active
Cannabidiol MIC (Batch 1) ([5]; Bacillus subtilis ATCC 6633): 2 µg/mL
MIC ([5]; Bacillus subtilis, ATCC6633, Bacillus subtilis ATCC 6633, read-out: Cannabidiol MIC (Batch 1)): 1 µg/mL (≈ 3.18 µM)
Cannabidiol MIC (Batch 1) ([6]; Staphylococcus aureus ATCC 29213): 2 µg/mL
MIC ([6]; Staphylococcus aureus, ATCC29213, Staphylococcus aureus ATCC 29213, read-out: Cannabidiol MIC (Batch 1)): 1 µg/mL (≈ 3.18 µM)
Cannabidiol MIC (Batch 1) ([7]; Staphylococcus epidermidis ATCC 12228): 2 µg/mL
MIC ([7]; Staphylococcus epidermidis, ATCC12228, Staphylococcus epidermidis ATCC 12228, read-out: Cannabidiol MIC (Batch 1)): 1 µg/mL (≈ 3.18 µM)
Cannabidiol MIC (Batch 1) ([8]; Staphylococcus aureus ATCC 33591): 2 µg/mL
MIC ([8]; Staphylococcus aureus, ATCC33591, Staphylococcus aureus ATCC 33591, read-out: Cannabidiol MIC (Batch 1)): 1 µg/mL (≈ 3.18 µM)
Cannabidiol MIC (Batch 1) (Kocuria rosea ATCC 31251; Kocuria rosea ATCC 31251): 2 µg/mL
MIC (Kocuria rosea ATCC 31251; Kocuria rosea, ATCC31251, Kocuria rosea ATCC 31251, read-out: Cannabidiol MIC (Batch 1)): 1 µg/mL (≈ 3.18 µM)
MIC [9]: 4 µg/mL (≈ 12.7 µM)
Cannabidiol MIC (Batch 1) ([10]; Staphylococcus capitis ATCC 27840): 2 µg/mL
MIC ([10]; Staphylococcus capitis, ATCC27840, Staphylococcus capitis ATCC 27840, read-out: Cannabidiol MIC (Batch 1)): 1 µg/mL (≈ 3.18 µM)
Cannabidiol MIC (Batch 1) ([11]; Staphylococcus warneri ATCC 27836): 4 µg/mL
MIC ([11]; Staphylococcus warneri, ATCC27836, Staphylococcus warneri ATCC 27836, read-out: Cannabidiol MIC (Batch 1)): 2 µg/mL (≈ 6.36 µM)
Cannabidiol MIC (Batch 1) ([12]; Bacillus cereus ATCC 11778): 2 µg/mL
MIC ([12]; Bacillus cereus, ATCC11778, Bacillus cereus ATCC 11778, read-out: Cannabidiol MIC (Batch 1)): 1 µg/mL (≈ 3.18 µM)
